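Results reflect a 48-hour exposure of cells in 96-well plates to compound at five concentrations. The concentration for 50% growth inhibition is given as GI50. TGI denotes the concentration required for complete inhibition of growth.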 *1 amine or outer side, *2 acyl side, *3 side chain or, on linkers, in order; H or OH if unused. Where a SMILES comes first, the peptide text is derived from it. Bridges are numbered along the chain shown (N, C = ends). Roman numbers before positions name the chains, in order. [ ]: non-standard residue; d: D form. Actinocin(9to1) = Cc1c2oc3c(C)ccc(C(=O)[*:1])c3nc-2c(C(=O)[*:2])c(N)c1=O; Hyp = O=C(O)[CH]1C[CH](O)CN1; NMeV = CN[CH](C(=O)O)C(C)C; Sar = CNCC(=O)O
What was measured:
Assay in all cases: NCI tumour cell line growth inhibition, 48 h
SNB-19 CNS = system: SNB-19 CNS
SK-MEL-5 melanoma = system: SK-MEL-5 melanoma
BT-549 breast = system: BT-549 breast
TK-10 renal = system: TK-10 renal
HCT-15 colon = system: HCT-15 colon
HL-60(TB) leukemia = system: HL-60(TB) leukemia
MCF7 breast = system: MCF7 breast
CCRF-CEM leukemia = system: CCRF-CEM leukemia
KM12 colon = system: KM12 colon

| SMILES | TGI (SNB-19 CNS) [µM] | TGI (SK-MEL-5 melanoma) [µM] | TGI (BT-549 breast) [µM] | TGI (TK-10 renal) [µM] | TGI (HCT-15 colon) [µM] | TGI (HL-60(TB) leukemia) [µM] | TGI (MCF7 breast) [µM] | TGI (CCRF-CEM leukemia) [µM] | TGI (KM12 colon) [µM] | GI50 (TK-10 renal) [µM] | GI50 (HCT-15 colon) [µM] | GI50 (CCRF-CEM leukemia) [µM] |
| --- | --- | --- | --- | --- | --- | --- | --- | --- | --- | --- | --- | --- |
| CCOC1NC(=O)Oc2cc3ccccc3cc21 (centres undefined) | > 100 | > 100 | > 100 | > 100 | > 100 | > 100 | > 100 | > 100 | > 100 |  |  |  |
| CCCCc1ccc(Nc2nc(Cl)c3ccn(C4CC(Oc5ccc(C)cc5)C(COc5ccc(C)cc5)O4)c3n2)cc1 (centres undefined) | 31.8 | > 46.4 | 17.3 | 43.4 | > 46.4 | > 46.4 | > 46.4 | > 46.4 | > 46.4 |  |  |  |
| CC(=O)O[C@H]1C(=O)[C@@]2(C)[C@H]([C@H](OC(=O)c3ccccc3)[C@]3(O)C[C@H](OC(=O)[C@H](O)[C@@H](NC(=O)c4ccccc4)c4cccc(N(C)C)c4)C(C)=C1C3(C)C)[C@]1(OC(C)=O)CO[C@@H]1C[C@@H]2O | > 41.9 | 11.3 | 3.51 | > 60 | 74.5 | 0.0414 | > 55.2 |  | > 24.7 |  |  |  |
| O=C(c1cccnc1)N1N=C(c2ccccc2)CC1(O)c1cc(F)c(Cl)cc1Cl (centres undefined) | > 100 | 27.6 | 43.1 | > 100 | 93.4 | 51.3 |  | > 100 | > 100 |  |  |  |
| CCC(CC)(CO)CNc1cc(Cl)nc(N)n1 |  | > 100 | > 100 | > 100 | > 100 | > 100 | > 100 | > 100 | > 100 |  |  |  |
| C=CC(=O)N1C/C(=C\c2ccc([N+](=O)[O-])cc2)C(=O)/C(=C/c2ccc([N+](=O)[O-])cc2)C1 | 3.08 | 2.54 | 0.567 | 2.09 | 0.272 | > 100 | 1.21 |  | 0.607 |  |  |  |
| Cc1c(Cl)cccc1N=NC(=O)NNc1cccc(Cl)c1C | 41.9 | 28.6 | 27.7 | 29.6 | 30 | 38.1 |  | 42.6 |  |  |  |  |
| CCCCCCCCCCCCCC[n+]1ccc(C(N)=O)cc1 |  |  |  | 2.79 | 49.6 |  |  | > 100 |  | 1.18 | 7.19 | 2.52 |
| O=C(O)/C(=C\c1ccc(O)cc1)c1cccc2ccccc12 | > 100 | > 100 | > 100 | > 100 | > 100 |  |  |  | > 100 |  |  |  |
| CCSc1nc(=S)n(-c2ccccc2)c(C)c1C(C)=O | > 100 | > 100 |  | > 100 | > 100 | > 100 | > 100 | > 100 | > 100 |  |  |  |
| Cc1cc2c(c(S(=O)(=O)c3ccccc3[N+](=O)[O-])c1)NCCC2 | > 100 | > 100 | > 100 | > 100 | > 100 | > 100 | > 100 |  | > 100 |  |  |  |
| Nc1ccc2ccc(N3CCNCC3)nc2n1 | > 100 |  | > 100 | > 100 | > 100 | > 100 | > 100 | > 100 | > 100 |  |  |  |
| O[C@@H]1CCC[C@@H]2NC[C@@H](c3ccc4c(c3)OCO4)[C@H]12 | > 100 | > 100 |  | > 100 | > 100 | > 100 | > 100 | > 100 | > 100 |  |  |  |
| COc1ccc(-c2ncn(C[Si](C)(C)C)c2-c2ccc(OC)cc2)cc1 | 26.2 | 10.2 | 72.3 | 20 | 18.3 | 4.57 | 31.1 |  | 19.9 |  |  |  |
| O=C1CC(=O)NC(=NN2C(=O)CSC2C(=O)c2ccco2)N1 (centres undefined) |  | > 100 | > 100 | > 100 | > 100 |  | > 100 | > 100 | > 100 |  |  |  |
| COC(=O)c1c2c(cc3c1CC1(Cc4cc5c(c(C(C)=O)c4C1)CCCC5)C3)CCCC2 (centres undefined) |  | > 100 |  | > 100 | > 100 | 46.3 | > 100 | 88.1 | > 100 |  |  |  |
| NCCCNOCCCN | > 100 | > 100 |  | > 100 | > 100 |  | > 100 |  | > 100 |  |  |  |
| COC(=O)C1=C(C(=O)OC)C(N(C)C)C(C(=O)OC)=C(C(=O)OC)S1 | > 100 |  | > 100 | > 100 | > 100 |  | > 100 |  | > 100 |  |  |  |
| CCCCCCCCCCCCCCCCCCNC(=S)/N=C/c1c(O)c2ccccc2[nH]c1=O | 36.3 | 70.7 | 38 | 56.1 | 29.4 | 17.9 | 48.3 |  | 30.9 |  |  |  |
| Cc1c2oc3c(C)ccc(C(=O)NC4C(=O)NC(C(C)C)C(=O)N5CC(O)CC5C(=O)N(C)CC(=O)N(C)C(C(C)C)C(=O)OC4C)c3nc-2c(C(=O)NC2C(=O)NC(C(C)C)C(=O)N3CC(O)CC3C(=O)N(C)CC(=O)N(C)C(C(C)C)C(=O)OC2C)c(N)c1=O (centres undefined) (I: TV[Hyp][Sar][NMeV] / II: TV[Hyp][Sar][NMeV]; ester I:1-I:C, II:1-II:C; linker I:N-II:N via Actinocin(9to1); configuration not given here) | > 1 | > 1 |  | > 1 | > 1 | > 1 | > 1 | > 1 | > 1 |  |  |  |
| CC(C)C(=O)/C=C/S/C=C/C(=O)C(C)C | > 100 | 21.7 |  | > 100 | 12.2 |  | > 100 |  | 92.1 |  |  |  |
| COc1c(Br)cc2ccccc2c1-c1c(OC)c(Br)cc2ccccc12 | > 100 | > 100 |  | > 100 | > 100 | > 100 | > 100 | > 100 | > 100 |  |  |  |
| O=[N+]([O-])/C=C(\CS(=O)(=O)c1ccccc1)c1ccc2c(c1)OCO2 |  | > 100 |  |  | > 100 | > 100 | > 100 | > 100 | 71.7 |  |  |  |
| CC(=O)C(C(C)=O)[C@@H]1OC(C)(C)O[C@@H]1[C@H]1COC(C)(C)O1 | > 100 | > 100 | > 100 | > 100 | > 100 | > 100 | > 100 |  | > 100 |  |  |  |
